Measurements from article PMC11096368, “Transcriptomic signature, bioactivity and safety of a non-hepatotoxic analgesic generating AM404 in the midbrain PAG region” (Scientific Reports, 2024).
“Also recorded” adds a separate entry of the source.

What was measured:
[1] = biological target: T1, hERG current (Homo sapiens, UniProt Q12809); experiment: Cardiotoxicity assay (hERG); assay type: cell-based; settings: human embryonic kidney cells
T1 construct: expressed in transfected cells; host or cells: human embryonic kidney cells
T1 sequence (Q12809 whole entry): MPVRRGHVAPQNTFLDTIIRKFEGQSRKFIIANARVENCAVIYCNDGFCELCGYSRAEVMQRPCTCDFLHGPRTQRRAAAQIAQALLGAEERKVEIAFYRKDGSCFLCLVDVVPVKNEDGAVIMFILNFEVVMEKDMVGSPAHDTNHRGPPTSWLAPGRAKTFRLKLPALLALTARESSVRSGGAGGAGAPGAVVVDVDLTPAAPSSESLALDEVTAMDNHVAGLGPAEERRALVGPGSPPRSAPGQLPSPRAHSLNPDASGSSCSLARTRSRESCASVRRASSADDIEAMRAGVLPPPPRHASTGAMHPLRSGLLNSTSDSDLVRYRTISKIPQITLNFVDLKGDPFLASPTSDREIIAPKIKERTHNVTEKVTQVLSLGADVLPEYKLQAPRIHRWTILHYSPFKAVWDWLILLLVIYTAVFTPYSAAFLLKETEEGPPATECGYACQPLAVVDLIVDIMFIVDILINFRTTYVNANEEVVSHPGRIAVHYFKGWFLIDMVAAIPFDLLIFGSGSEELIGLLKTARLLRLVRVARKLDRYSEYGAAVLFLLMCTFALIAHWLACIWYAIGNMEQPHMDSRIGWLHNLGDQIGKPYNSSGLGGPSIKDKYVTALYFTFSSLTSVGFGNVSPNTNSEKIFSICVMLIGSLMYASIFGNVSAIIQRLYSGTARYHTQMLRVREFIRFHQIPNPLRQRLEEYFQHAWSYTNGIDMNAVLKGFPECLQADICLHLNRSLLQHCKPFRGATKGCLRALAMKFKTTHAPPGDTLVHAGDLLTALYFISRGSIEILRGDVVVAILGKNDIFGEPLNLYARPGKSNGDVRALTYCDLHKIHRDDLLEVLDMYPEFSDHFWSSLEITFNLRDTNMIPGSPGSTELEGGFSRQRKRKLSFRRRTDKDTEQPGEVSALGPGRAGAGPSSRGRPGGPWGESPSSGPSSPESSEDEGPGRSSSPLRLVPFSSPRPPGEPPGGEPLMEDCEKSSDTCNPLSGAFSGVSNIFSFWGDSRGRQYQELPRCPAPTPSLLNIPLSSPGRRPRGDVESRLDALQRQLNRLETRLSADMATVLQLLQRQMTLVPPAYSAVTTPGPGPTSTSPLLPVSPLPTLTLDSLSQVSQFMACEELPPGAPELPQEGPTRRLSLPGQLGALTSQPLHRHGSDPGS
Experimental: The effects of SRP-001 on hERG current amplitude at physiologic temperatures were evaluated over a nominal concentration range of 0.1 μM to […]. A vehicle group (10% DMSO) was included in the study for comparison, and dofetilide (10 nM) was used as a reference substance. The vehicle and positive controls indicated appropriate sensitivity of the test systems. […] Next, the potential acute effects of oral SRP-001 on cardiovascular function in conscious telemetered beagle dogs was done using a Latin Square design; 4 male naïve beagle dogs each received vehicle (10% DMSO: 10% labrasol: 80% PEG400) and three doses (30, 90, and 150 mg/kg) of SRP-001 nanosuspension by oral gavage. […] A single dose was administered on the day of dosing, and a washout period of seven days was allowed between doses. One-min means of hemodynamic parameters, as well as ECG parameters and body temperature, were measured for a period of at least 24 h. One-min tracings of the ECGs were obtained at 15 min prior to dosing and at 30 min, 1, 2, 4, 8, 12, and 24 h post-dose. Qualitative evaluation of the ECGs was done by a board-certified veterinary cardiologist.

[2] = tested on: male Sprague–Dawley rats; experiment: Pulmonary function evaluation in conscious rats (GLP); assay type: in vivo; settings: oral, 220, 440, 660 mg/kg
Experimental: The potential effects of orally administered SRP-001 on respiratory rate, tidal volume, and minute volume in conscious male Sprague–Dawley rats was studied in 24 male rats. The rodents were trained for two days in the head-out plethysmograph chamber for 15–17 min each prior to the experiment. On the day of dosing, each animal was weighed and placed in the plethysmograph chamber, and baseline respiratory parameters were obtained for 5 min following an approximately 5-min stabilization period. The rats were then removed from the chamber and dosed by oral gavage. Three groups of six male Sprague–Dawley rats each were orally administered SRP-001 at a single dose of 220, 440, or 660 mg/kg at a dose volume of 10 mL/kg. […] Following dosing, each animal was returned to its designated plethysmograph chamber, and the respiratory parameters were recorded at 30 min (± 5 min), 2, 4, and 6 h (± 15 min). Animals were allowed to stabilize in the plethysmograph chamber for at least 5 min before each reading was taken. The following parameters were acquired, recorded, and analyzed using Ponemah Physiology Platform (Ponemah v.5.20 Pulmonary); Respiratory rate, Tidal Volume, and Minute Volume, Values for the test article treated group were compared to the vehicle control values using a two-way repeated measures ANOVA followed by a Bonferroni Multiple Comparison Test (SigmaStat, v. 4.0). […]

[3] = tested on: Salmonella typhimurium strains TA98, TA100, TA1535, TA1537, and E. coli WP2 uvrA; experiment: Ames bacterial reverse mutation assay; assay type: cell-based, Escherichia coli
Experimental: SRP-001 was tested to evaluate its mutagenic potential by measuring its ability to induce reverse mutations at selected loci of several strains of Salmonella typhimurium (S. typhimurium) and at the tryptophan locus of Escherichia coli (E. coli) strain WP2 uvrA in the presence and absence of an exogenous metabolic activation system (Bioreliance, Rockville, MD USA). Dimethyl sulfoxide (10% DMSO) was used as the vehicle. The dose levels tested in the preliminary toxicity assay were 6.67, 10.0, 33.3, 66.7, 100, 333, 667, 1000, 3333, and 5000 µg per plate. No precipitate was observed. […] The dose levels tested in the mutagenicity assay were 100, 333, 667, 1000, 3333, and 5000 µg per plate.

[4] = tested on: Chinese Hamster ovary cells; experiment: In vitro mammalian chromosomal aberration assay; assay type: cell-based; settings: for Doses with cytotoxicity (≥ 45% reduction in cell growth index): non-activated 20-h exposure
Experimental: In the preliminary toxicity assay, the doses tested ranged from 0.0405 to 405 µg/mL (1 mM), which was the limit dose for this assay (Bioreliance, Rockville, MD USA).
The doses selected for evaluation of chromosome aberrations were 150, 300, and 405 µg/mL for the non-activated and S9-activated 4-h exposure groups; and 10, 40, and 80 µg/mL for the non-activated 20-h exposure group. […] The induction of structural aberrations was outside the 95% control limit of the historical negative control data of 0.00% to 2.79%. […] However, the induction of structural aberrations was within the 95% control limit of the historical negative control data of 0.00% to 4.28%. […] The induction of structural aberrations was outside the 95% control limit of the historical negative control data of 0.00% to 2.68%.
The induction of numerical aberrations was within the 95% control limit of the historical negative control data.

[5] = tested on: beagle dogs; experiment: Single oral dose (capsule) toxicity and pharmacokinetic study (non-GLP); assay type: in vivo; settings: single dose 300 mg/kg
Experimental: SRP-001 was prepared into capsules for oral administration. Three experimentally non-naïve Beagle dogs, at least 7 months old and weighing 7.7 to 10 kg prior to treatment initiation, were administered a single dose of 300 mg/kg SRP-001 (Calvert Labs/Altasciences, Scott Township, PA USA). On the day of dosing, animals were observed prior to dose administration, approximately 1–3 h post-dose, and once on day 2. Body weights were recorded for all animals prior to dose administration for the preparation of the capsules. Blood for bioanalytical evaluation was collected at selected timepoints on day 1. Following the completion of the study, surviving animals were not euthanized. They were returned to the Calvert colony for an appropriate washout period before possible use in a subsequent study. […] Plasma samples were collected at seven different time points post-dose.

[6] = Toxicokinetics following IV & PO dosing; assay type: in vivo, dog; settings: beagle dogs
Text: Supplementary Fig. 19. Toxicokinetic (TK) beagle dog data.

CCN(CC)C(=O)c1ccccc1S(=O)(=O)NCC(=O)Nc1ccc(O)cc1 [SRP-001, N,N-diethyl-2-[[2-(4-hydroxyanilino)-2-oxo-ethyl]sulfamoyl]benzamide]
Signal in in vitro hERG assay [1]: absent relevant signal
Respiratory findings (respiratory rate, tidal volume, minute volume) [2]: did not induce any significant effects; also recorded: No significant findings
Dose with toxicity (reduction in the revertant count) ([3]; preliminary toxicity assay, tester strains TA1537 and WP2 uvrA, absence of S9): 5000 µg per plate
Mutagenic response (reverse mutations) ([3]; up to 5000 µg per plate, presence or absence of S9 activation): negative; also recorded: No positive mutagenic responses; also recorded: No positive mutagenic responses were observed with any of the tester strains in either the presence or absence of S9 activation
Cytotoxicity (≥ 45% reduction in cell growth index) [4]: not observed at any dose
Induction of numerical chromosomal aberrations [4]: negative
Induction of structural chromosomal aberrations [4]: positive
Structural aberrations ([4]; Chinese hamster, 20 h, 80 µg/mL): 3.7%
Dose with cytotoxicity (≥ 45% reduction in cell growth index) ([4]; chromosome aberration assay, non-activated 4-h exposure): 405 µg/mL
Doses with cytotoxicity (≥ 45% reduction in cell growth index) ([4]; chromosome aberration assay): ≥ 70 µg/mL
Doses with cytotoxicity (≥ 45% reduction in cell growth index) ([4]; preliminary toxicity assay): ≥ 122 µg/mL
Bioavailability (bioanalytical analysis of plasma) [5]: poor bioavailability
Tolerability [5]: well tolerated
Exposure versus dose [6]: dose-dependent response
Time of Cmax [6]: 15 to 30 min
